Test results from patent US11352353B2, “Heterocyclic compound serving as FGFR4 inhibitor” (Hangzhou Innogate Pharma Co., Ltd., priority 2016, dated 2022).

Experiments:
[1] = system: Huh7 tumor cells; test: Inhibition of Huh-7 tumor cell proliferation (CellTiter Glo); assay type: cell-based; details: Homo sapiens, 72 or 168 hours
Experimental: 2. Compound Inhibition Test on Huh-7 Tumor Cell Proliferation
The Huh7 cell suspension was adjusted to 5×10e4/mL or 2×10e4/mL with DMEM+2 Mm Glutamine+10% FBS medium. A 100 μL cell suspension was added to each well in a 96-well cell culture plate at a final cell concentration of 5000 cells/well (72 hours) or 2000 cells/well (168 hours). The test compound was dissolved in DMSO as a 10 mM stock solution. Compounds at a final concentration of 200× were prepared using stock solutions and DMSO, and 3× serial dilutions were prepared and then diluted 20-fold with each medium. Finally, 10 μL of the corresponding 10-fold solution was added to each well of each cell, and each drug concentration was single-well. The final concentrations of each compound were 3000 nM, 1000 nM, 333.3 nM, 111.1 nM, 37.04 nM, 12.35 nM, 4.12 nM, 1.37 nM, and the final concentration of DMSO per well was 0.5%. Incubate for 72 or 168 hours in a 37° C., 5% CO2 incubator. After 72 or 168 hours of drug treatment, according to the CTG instructions, add 100 µL CellTiter Glo detection reagent per well, pre-melt and equilibrate to room temperature CTG solution, mix with a microplate shaker for 2 minutes, and leave at room temperature for 10 minutes. The chemiluminescence signal value was then measured using an EnSpire plate reader. Cell survival rate was calculated using formula: (Vsample−Vblank)/(Vvehicle control−Vblank)×100%. Vsample is the reading of the drug treatment group, Vvehicle control is the average value of the solvent control group, and Vblank is the average value of the blank control well. The S-type dose-survival curve was plotted and the IC50 values were calculated using the GraphPad Prism 5.0 software using a non-linear regression model.

[2] = molecular target: FGFR1 (Homo sapiens, UniProt P11362); test: FGFR1 kinase activity inhibition (Caliper mobility shift assay); assay type: biochemical; details: FAM-labeled peptide and ATP, 28° C. 30-60 minutes, read-out: FGFR kinase inhibition (IC50, nM) FGFR1
Experimental: (§1) 1. FGFR1 and FGFR4 Kinase Activity Inhibition Experiments
(§2) The FGFR1, FGFR2, FGFR3 and FGFR4 protein kinase activities were determined using the Caliper mobility shift assay. The compound was dissolved in DMSO and diluted with kinase buffer, and 5 µL of a 5-fold final concentration of the compound (10% DMSO) was added to a 384-well plate. After adding 10 µL of 2.5-fold enzyme (FGFR1 and FGFR4, respectively) solution, incubate for 10 minutes at room temperature, and then add 10 µL of a (FAM-labeled peptide and ATP) solution. Incubate at 28° C. for 30-60 minutes and stop the reaction by adding 25 µL stop solution. Conversion rate data was read on a Caliper EZ Reader II (Caliper Life Sciences). The conversion rate was converted into inhibition rate data (% inhibition rate=(max−sample conversion rate)/(max−min)*100). Wherein max is the conversion of the DMSO control and min is the conversion of the enzyme-free control. Plot the curve with the compound concentration and inhibition rate on the horizontal and vertical coordinates, and fit the curve and calculate the IC50 using XLFit excel add-in version 4.3.1 software.

[3] = molecular target: FGFR4 (Homo sapiens, UniProt P22455); test: FGFR4 kinase activity inhibition (Caliper mobility shift assay); assay type: biochemical; details: FAM-labeled peptide and ATP, 28° C. 30-60 minutes, read-out: FGFR kinase inhibition (IC50, nM) FGFR4
Experimental: as §1, §2

FGFR4, sequence (P22455 22-802): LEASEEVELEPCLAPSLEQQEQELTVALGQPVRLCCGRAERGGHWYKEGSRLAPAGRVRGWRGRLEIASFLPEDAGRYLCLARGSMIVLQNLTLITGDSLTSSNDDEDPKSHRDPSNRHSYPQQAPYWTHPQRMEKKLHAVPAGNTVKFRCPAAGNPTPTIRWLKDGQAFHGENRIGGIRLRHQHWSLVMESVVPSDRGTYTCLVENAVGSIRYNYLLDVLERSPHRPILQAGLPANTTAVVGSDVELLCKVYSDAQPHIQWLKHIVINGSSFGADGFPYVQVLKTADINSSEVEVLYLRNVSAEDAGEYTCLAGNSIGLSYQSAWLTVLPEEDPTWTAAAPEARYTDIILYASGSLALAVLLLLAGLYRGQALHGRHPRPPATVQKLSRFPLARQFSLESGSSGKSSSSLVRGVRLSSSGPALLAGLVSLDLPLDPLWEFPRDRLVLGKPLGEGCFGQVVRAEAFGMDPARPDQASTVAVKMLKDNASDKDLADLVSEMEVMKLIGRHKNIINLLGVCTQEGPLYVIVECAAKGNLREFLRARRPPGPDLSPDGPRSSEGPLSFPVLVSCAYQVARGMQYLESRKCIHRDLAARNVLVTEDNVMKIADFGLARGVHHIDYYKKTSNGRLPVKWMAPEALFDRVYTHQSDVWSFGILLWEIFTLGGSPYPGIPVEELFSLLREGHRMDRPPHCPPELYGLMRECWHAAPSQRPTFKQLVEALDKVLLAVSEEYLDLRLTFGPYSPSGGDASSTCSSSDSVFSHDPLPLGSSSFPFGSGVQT
FGFR1, sequence (P11362 22-822): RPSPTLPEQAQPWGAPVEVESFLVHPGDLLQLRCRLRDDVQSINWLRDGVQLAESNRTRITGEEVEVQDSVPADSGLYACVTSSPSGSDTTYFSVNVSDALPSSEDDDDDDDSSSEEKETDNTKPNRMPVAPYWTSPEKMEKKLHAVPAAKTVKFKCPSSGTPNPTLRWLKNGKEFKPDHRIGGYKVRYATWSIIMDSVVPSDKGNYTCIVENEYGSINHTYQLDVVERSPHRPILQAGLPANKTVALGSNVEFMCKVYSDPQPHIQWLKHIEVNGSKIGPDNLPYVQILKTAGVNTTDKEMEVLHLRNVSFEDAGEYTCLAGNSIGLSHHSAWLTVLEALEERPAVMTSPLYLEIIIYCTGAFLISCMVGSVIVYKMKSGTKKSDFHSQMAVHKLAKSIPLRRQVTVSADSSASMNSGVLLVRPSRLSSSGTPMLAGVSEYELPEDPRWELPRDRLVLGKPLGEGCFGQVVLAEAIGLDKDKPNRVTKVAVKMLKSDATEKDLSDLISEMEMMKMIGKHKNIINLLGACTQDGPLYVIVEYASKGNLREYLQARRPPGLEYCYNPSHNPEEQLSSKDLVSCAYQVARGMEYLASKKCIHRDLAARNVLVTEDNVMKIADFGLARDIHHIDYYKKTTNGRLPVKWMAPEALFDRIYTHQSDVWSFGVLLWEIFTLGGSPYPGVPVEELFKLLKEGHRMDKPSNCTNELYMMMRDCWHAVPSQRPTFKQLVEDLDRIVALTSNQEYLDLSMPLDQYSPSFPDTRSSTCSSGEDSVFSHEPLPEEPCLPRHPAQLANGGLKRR

| SMILES | IC50 [1] | IC50 [2] | IC50 [3] |
| --- | --- | --- | --- |
| CN1CCN(Cc2cc3c(nc2C=O)N(C(=O)Nc2cc(OC4CC4)c(C#N)cn2)CCC3)C(=O)C1 [Compound 1] | < 50 nM | > 10000 nM | – |
| COC1CCC(Oc2cc(NC(=O)N3CCCc4cc(CN5CCN(C)CC5=O)c(C=O)nc43)ncc2C#N)CC1 (stereo not drawn) [Compound 2] | < 50 nM | > 10000 nM | – |
| CO[C@H]1CC[C@@H](Nc2cc(NC(=O)N3CCCc4cc(CN5CCN(C)CC5=O)c(C=O)nc43)ncc2C#N)CC1 [Compound 3] | < 50 nM | – | – |
| N#Cc1cnc(NC(=O)N2CCCc3cc(CN4CCN(C5CC5)CC4=O)c(C=O)nc32)cc1OC1CC1 [Compound 4] | < 500 nM | – | < 20 nM |
| CN1CCCN(Cc2cc3c(nc2C=O)N(C(=O)Nc2cc(OC4CC4)c(C#N)cn2)CCC3)C(=O)C1 [Compound 5] | < 50 nM | – | – |
| N#Cc1cnc(NC(=O)N2CCCc3cc(CN4CC5CCCN5CC4=O)c(C=O)nc32)cc1OC1CC1 (stereo not drawn) [Compound 6] | < 500 nM | – | – |
| COCC1(Oc2cc(NC(=O)N3CCCc4cc(CN5CCN(C)CC5=O)c(C=O)nc43)ncc2C#N)CC1 [Compound 7] | < 500 nM | – | – |
| COC1CC(Nc2cc(NC(=O)N3CCCc4cc(CN5CCN(C)CC5=O)c(C=O)nc43)ncc2C#N)C1 (stereo not drawn) [Compound 8] | – | – | < 5 nM |
| COCCNc1cc(NC(=O)N2CCCc3cc(CN4CCCN(C)CC4=O)c(C=O)nc32)ncc1C#N [Compound 9] | – | – | < 5 nM |
| COCCNc1cc(NC(=O)N2CCCc3cc(CN4CCN5CCCC5C4=O)c(C=O)nc32)ncc1C#N (stereo not drawn) [Compound 10] | – | – | < 5 nM |
| COCCNc1cc(NC(=O)N2CCCc3cc(CN4CCN(C5CN(C)C5)CC4=O)c(C=O)nc32)ncc1C#N [Compound 11] | – | – | < 5 nM |
| CN1CCN(Cc2cc3c(nc2C=O)N(C(=O)Nc2cc(NC4CC4)c(C#N)cn2)CCC3)C(=O)C1 [Compound 12] | – | – | < 5 nM |
